The record followed here is article PMC6321475, “Synthesis and Evaluation of the 4-Substituted 2-Hydroxy-5-Iodochalcones and Their 7-Substituted 6-Iodoflavonol Derivatives for Inhibitory Effect on Cholinesterases and β-Secretase” (International Journal of Molecular Sciences, 2018).

What all share (type): biochemical
Assay [1] concerns the target butyrylcholinesterase (BChE) (Homo sapiens, UniProt P06276). Put plainly: biochemical.
For assay [2], the target named is acetylcholinesterase (AChE) (Homo sapiens, UniProt P22303). Put plainly: biochemical.
Assay [3] concerns the target T1, BACE-1 (Homo sapiens, UniProt P56817).
T1 construct: purchased Pan Vera; host or cells: baculovirus-expressed
The experiment in a line: In vitro BACE-1 inhibitory FRET assay. To be noted: 60 min at 25 °C, pH 4.5.

[4] abbreviates: mean ± SD, three independent experiments.

Like-named read-outs stand apart in the source and are kept apart here.

Chain of butyrylcholinesterase (BChE) (P06276 29-602): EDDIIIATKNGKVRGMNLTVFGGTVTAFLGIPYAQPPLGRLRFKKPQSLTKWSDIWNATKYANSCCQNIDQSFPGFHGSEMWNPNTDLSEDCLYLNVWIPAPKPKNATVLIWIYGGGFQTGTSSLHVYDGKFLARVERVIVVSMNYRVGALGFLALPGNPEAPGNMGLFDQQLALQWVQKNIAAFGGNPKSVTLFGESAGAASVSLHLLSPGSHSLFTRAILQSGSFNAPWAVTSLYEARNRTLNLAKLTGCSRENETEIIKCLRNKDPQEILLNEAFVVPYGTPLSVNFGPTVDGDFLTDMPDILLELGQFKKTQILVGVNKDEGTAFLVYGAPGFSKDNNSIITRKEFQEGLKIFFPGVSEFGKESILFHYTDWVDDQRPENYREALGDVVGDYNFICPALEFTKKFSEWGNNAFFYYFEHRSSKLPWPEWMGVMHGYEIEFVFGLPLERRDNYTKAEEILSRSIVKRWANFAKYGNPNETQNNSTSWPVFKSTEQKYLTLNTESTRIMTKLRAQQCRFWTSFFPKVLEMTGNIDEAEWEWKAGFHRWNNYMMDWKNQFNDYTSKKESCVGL
Chain of acetylcholinesterase (AChE) (P22303 32-614): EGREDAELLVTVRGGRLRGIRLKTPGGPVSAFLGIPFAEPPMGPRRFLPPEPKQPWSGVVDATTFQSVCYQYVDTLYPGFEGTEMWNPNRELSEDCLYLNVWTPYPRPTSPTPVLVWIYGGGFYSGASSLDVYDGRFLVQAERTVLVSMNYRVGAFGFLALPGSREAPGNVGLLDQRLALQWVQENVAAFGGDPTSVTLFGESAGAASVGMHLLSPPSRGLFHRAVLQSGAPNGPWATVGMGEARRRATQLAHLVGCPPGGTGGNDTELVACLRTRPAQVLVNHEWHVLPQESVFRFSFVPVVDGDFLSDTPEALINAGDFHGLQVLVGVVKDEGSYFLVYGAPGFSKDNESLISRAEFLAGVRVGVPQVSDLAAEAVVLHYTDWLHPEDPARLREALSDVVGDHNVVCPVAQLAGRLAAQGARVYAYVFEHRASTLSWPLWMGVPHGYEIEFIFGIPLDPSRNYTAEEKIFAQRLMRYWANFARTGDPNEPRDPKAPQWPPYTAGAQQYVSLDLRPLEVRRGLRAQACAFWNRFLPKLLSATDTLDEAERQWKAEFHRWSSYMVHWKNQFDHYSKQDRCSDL
T1 sequence (P56817 46-501): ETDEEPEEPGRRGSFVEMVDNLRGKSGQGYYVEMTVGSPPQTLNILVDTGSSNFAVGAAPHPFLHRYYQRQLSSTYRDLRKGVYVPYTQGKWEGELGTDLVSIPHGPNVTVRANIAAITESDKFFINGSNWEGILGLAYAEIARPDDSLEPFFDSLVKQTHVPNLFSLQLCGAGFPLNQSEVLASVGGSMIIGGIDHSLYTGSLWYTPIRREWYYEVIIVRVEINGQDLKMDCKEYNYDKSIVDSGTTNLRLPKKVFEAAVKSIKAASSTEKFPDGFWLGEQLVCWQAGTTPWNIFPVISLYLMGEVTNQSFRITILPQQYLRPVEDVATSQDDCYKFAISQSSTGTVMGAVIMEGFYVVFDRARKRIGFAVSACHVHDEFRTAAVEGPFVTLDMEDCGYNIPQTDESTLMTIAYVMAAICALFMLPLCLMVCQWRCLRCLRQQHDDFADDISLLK

As usually defined, the IC50 is the point on the concentration scale where inhibition reaches its midpoint. As for `O=C(/C=C/c1ccccc1)c1cc(I)c(F)cc1O` [Compound 2a, (E)-1-(4-Fluoro-2-hydroxy-5-iodophenyl)-3-phenylpropenone], in assay [1], the “SI AChE/BChE” value was 1.38. Further, the concentration for half-maximal inhibition (IC50) in assay [1] (setting [4]) is 28.06 ± 0.1 µM; in assay [2] (setting [4]), 38.78 ± 0.01 µM. Also, in assay [2], the “SI BChE/AChE” value was 0.72.

For the compound `O=C(/C=C/c1ccc(F)cc1)c1cc(I)c(F)cc1O` [Compound 2b, (E)-1-(4-Fluoro-2-hydroxy-5-iodophenyl)-3-(4-fluorophenyl)propenone], in assay [1], the IC50 stood at 19.73 ± 0.05 µM and the “SI AChE/BChE” value amounted to 0.84. Further, in assay [2], 16.6 ± 0.03 µM corresponded to half-maximal inhibition (IC50) and the “SI BChE/AChE” value was 1.19.

`O=C(/C=C/c1ccc(Cl)cc1)c1cc(I)c(F)cc1O` [Compound 2c, (E)-3-(4-chlorophenyl)-1-(4-fluoro-2-hydroxy-5-iodophenyl)prop-2-en-1-one]: the “SI AChE/BChE” value in assay [1] turned out to be 0.72. The IC50 in assay [1] (setting [4]) stood at 14.58 ± 0.14 µM; in assay [2] (setting [4]), 10.5 ± 0.08 µM. Moreover, in assay [2], the “SI BChE/AChE” value is given as 1.39.

Take `COc1ccc(/C=C/C(=O)c2cc(I)c(F)cc2O)cc1` [Compound 2d, (E)-1-(4-Fluoro-2-hydroxy-5-iodophenyl)-3-(4-methoxyphenyl)propenone]: in assay [1], the IC50 is 8.49 ± 0.05 µM and the “SI AChE/BChE” value was 1.29. Moreover, in assay [2], inhibition was half-maximal at 11 ± 0.3 µM (IC50) and the “SI BChE/AChE” value was 0.78.

For the compound `O=C(/C=C/c1ccccc1)c1cc(I)c(Cl)cc1O` [Compound 2e, (E)-1-(4-Chloro-2-hydroxy-5-iodophenyl)-3-phenylpropenone], the concentration for half-maximal inhibition (IC50) worked out at 25.2 ± 0.3 µM in assay [1] and 10.64 ± 0.07 µM in assay [2]. Besides, the “SI BChE/AChE” value in assay [2] is recorded as 2.37.

Turning to `O=C(/C=C/c1ccc(F)cc1)c1cc(I)c(Cl)cc1O` [Compound 2f, (E)-1-(4-Chloro-2-hydroxy-5-iodophenyl)-3-(4-fluorophenyl)propenone], in assay [1], the “SI AChE/BChE” value is given as 0.54. Besides, the IC50 is 17.86 ± 0.08 µM in assay [1] (setting [4]) and 9.57 ± 0.2 µM in assay [2] (setting [4]). Further, the “SI BChE/AChE” value in assay [2] turned out to be 1.87.

Consider `O=C(/C=C/c1ccc(Cl)cc1)c1cc(I)c(Cl)cc1O` [Compound 2g, (E)-1-(4-Chloro-2-hydroxy-5-iodophenyl)-3-(4-chlorophenyl)propenone], for which the IC50 is > 100 µM in assay [1] and 11 ± 0.06 µM in assay [2].

For `O=C(/C=C/c1ccccc1)c1cc(I)c(Br)cc1O` [Compound 2i, (E)-1-(4-Bromo-2-hydroxy-5-iodophenyl)-3-phenylpropenone], in assay [1], the IC50 was found to be 14.11 ± 0.11 µM and the “SI AChE/BChE” value is on record as 4.12. Besides, in assay [2], the IC50 is 58.14 ± 0.21 µM and the “SI BChE/AChE” value is on record as 0.24.

`O=C(/C=C/c1ccc(Cl)cc1)c1cc(I)c(Br)cc1O` [Compound 2k, (E)-1-(4-Bromo-2-hydroxy-5-iodophenyl)-3-(4-chlorophenyl)propenone]: in assay [1], the IC50 stood at 10.44 ± 0.09 µM and the “SI AChE/BChE” value was 1.11. For the same compound, in assay [2], the half-maximal inhibitory concentration (IC50) is 11.56 ± 0.05 µM and the “SI BChE/AChE” value is on record as 0.90.

Consider `COc1ccc(/C=C/C(=O)c2cc(I)c(Br)cc2O)cc1` [Compound 2l, (E)-1-(4-Bromo-2-hydroxy-5-iodophenyl)-3-(4-methoxyphenyl)propenone], for which, in assay [1], the IC50 worked out at 15.25 ± 0.01 µM and the “SI AChE/BChE” value worked out at 0.69. Besides, in assay [2], 10.51 ± 0.03 µM corresponded to half-maximal inhibition (IC50) and the “SI BChE/AChE” value is on record as 1.45.

Regarding `COc1cc(O)c(C(=O)/C=C/c2ccccc2)cc1I` [Compound 2m, (E)-1-(2-Hydroxy-5-iodo-4-methoxyphenyl)-3-phenylprop-2-en-1-one], the “SI AChE/BChE” value in assay [1] turned out to be 1.05. Further, the concentration for half-maximal inhibition (IC50) in assay [1] (setting [4]) was 9.52 ± 0.03 µM; in assay [2] (setting [4]), 10.01 ± 0.09 µM. Also, in assay [2], the “SI BChE/AChE” value came out at 0.95.

For the compound `COc1cc(O)c(C(=O)/C=C/c2ccc(F)cc2)cc1I` [Compound 2n, (E)-3-(4-Fluorophenyl)-1-(2-hydroxy-5-iodo-4-methoxyphenyl)prop-2-en-1-one], the “SI AChE/BChE” value in assay [1] is 1.59. The half-inhibitory concentration (IC50) in assay [1] (setting [4]) was determined as 5.91 ± 0.05 µM; in assay [3], 25.07 ± 0.1 µM; in assay [2] (setting [4]), 9.38 ± 0.07 µM. Further, the “SI BChE/AChE” value in assay [2] is recorded as 0.63.

Regarding `COc1cc(O)c(C(=O)/C=C/c2ccc(Cl)cc2)cc1I` [Compound 2o, (E)-3-(4-Chlorophenyl)-1-(2-hydroxy-5-iodo-4-methoxyphenyl)prop-2-en-1-one], the “SI AChE/BChE” value in assay [1] turned out to be 0.95. The IC50 in assay [1] (setting [4]) is 11.6 ± 0.17 µM; in assay [2] (setting [4]), 11.1 ± 0.12 µM. In assay [2], the “SI BChE/AChE” value amounted to 1.05.

Turning to `COc1ccc(/C=C/C(=O)c2cc(I)c(OC)cc2O)cc1` [Compound 2p, (E)-1-(2-Hydroxy-5-iodo-4-methoxyphenyl)-3-(4-methoxyphenyl)prop-2-en-1-one], the “SI AChE/BChE” value in assay [1] was 2.24. Moreover, the IC50 was found to be 4.89 ± 0.02 µM in assay [1] (setting [4]), 70.79 ± 0.2 µM in assay [3] and 10.96 ± 0.03 µM in assay [2] (setting [4]). Further, in assay [2], the “SI BChE/AChE” value was found to be 0.45.

Regarding `O=c1c(O)c(-c2ccccc2)oc2cc(F)c(I)cc12` [Compound 3a, 7-Flu.oro-3-hydroxy-6-iodo-2-phenyl-4H-chromen-4-one], in assay [1], the IC50 amounted to 27.01 ± 0.06 µM and the “SI AChE/BChE” value turned out to be 1.10. In assay [2], inhibition was half-maximal at 29.71 ± 0.01 µM (IC50) and the “SI BChE/AChE” value worked out at 0.91.

With `O=c1c(O)c(-c2ccc(Cl)cc2)oc2cc(F)c(I)cc12` [Compound 3c, 2-(4-C.hlorophenyl)-7-fluoro-3-hydroxy-6-iodo-4H-chromen-4-one], the “SI AChE/BChE” value in assay [1] was 0.09. Besides, the IC50 in assay [1] (setting [4]) was 37.51 ± 0.08 µM; in assay [3] it was 19.69 ± 0.05 µM; in assay [2] (setting [4]) it was 3.45 ± 0.07 µM. For the same compound, the “SI BChE/AChE” value in assay [2] is 10.8.

`COc1ccc(-c2oc3cc(F)c(I)cc3c(=O)c2O)cc1` [Compound 3d, 7-Flu.oro-3-hydroxy-6-iodo-2-(4-methoxyphenyl)-4H-chromen-4-one]: in assay [1], the IC50 worked out at 29.41 ± 0.04 µM and the “SI AChE/BChE” value is 1.98. In addition, in assay [2], the half-inhibitory concentration (IC50) was 58.18 ± 0.03 µM and the “SI BChE/AChE” value was 0.50.

On to `O=c1c(O)c(-c2ccccc2)oc2cc(Cl)c(I)cc12` [Compound 3e, 7-Chl.oro-3-hydroxy-6-iodo-2-phenyl-4H-chromen-4-one], for which, in assay [1], the concentration for half-maximal inhibition (IC50) worked out at 6.64 ± 0.03 µM and the “SI AChE/BChE” value is given as 7.21. In assay [2], the half-inhibitory concentration (IC50) amounted to 47.85 ± 0.04 µM and the “SI BChE/AChE” value was 0.14.

Consider `O=c1c(O)c(-c2ccc(F)cc2)oc2cc(Cl)c(I)cc12` [Compound 3f, 7-Chl.oro-2-(4-fluorophenyl)-3-hydroxy-6-iodo-4H-chromen-4-one], for which, in assay [1], the IC50 is 18.17 ± 0.1 µM and the “SI AChE/BChE” value came to 2.11. In assay [2], inhibition was half-maximal at 38.39 ± 0.02 µM (IC50) and the “SI BChE/AChE” value amounted to 0.47.

Consider `O=c1c(O)c(-c2ccc(Cl)cc2)oc2cc(Cl)c(I)cc12` [Compound 3g, 7-Chl.oro-2-(4-chlorophenyl)-3-hydroxy-6-iodo-4H-chromen-4-one], for which, in assay [1], the half-inhibitory concentration (IC50) came to 7.69 ± 0.01 µM and the “SI AChE/BChE” value is on record as 7.69. Moreover, in assay [2], the IC50 came to 59.1 ± 0.05 µM and the “SI BChE/AChE” value came to 0.13.

In the case of `COc1ccc(-c2oc3cc(Cl)c(I)cc3c(=O)c2O)cc1` [Compound 3h, 7-Chl.oro-3-hydroxy-6-iodo-2-(4-methoxyphenyl)-4H-chromen-4-one], the “SI AChE/BChE” value in assay [1] stood at 2.51. The results for the half-inhibitory concentration (IC50) in assay [1] (setting [4]) and in assay [2] (setting [4]) were 5.72 ± 0.01 µM and 14.33 ± 0.03 µM, respectively. Besides, the “SI BChE/AChE” value in assay [2] was determined as 0.40.

With `O=c1c(O)c(-c2ccccc2)oc2cc(Br)c(I)cc12` [Compound 3i, 7-Bro.mo-3-hydroxy-6-iodo-2-phenyl-4H-chromen-4-one], in assay [1], 5.76 ± 0.04 µM corresponded to half-maximal inhibition (IC50) and the “SI AChE/BChE” value is reported as 1.73. Further, in assay [2], the 50% inhibitory concentration (IC50) worked out at 9.96 ± 0.01 µM and the “SI BChE/AChE” value was 0.57.

For `O=c1c(O)c(-c2ccc(F)cc2)oc2cc(Br)c(I)cc12` [Compound 3j, 7-Bro.mo-2-(4-fluorophenyl)-3-hydroxy-6-iodo-4H-chromen-4-one], in assay [1], the half-maximal inhibitory concentration (IC50) stood at 27.01 ± 0.07 µM and the “SI AChE/BChE” value is listed as 0.41. In assay [2], the midpoint of inhibition, the IC50, lay at 11.16 ± 0.01 µM and the “SI BChE/AChE” value was 2.42.

As to `O=c1c(O)c(-c2ccc(Cl)cc2)oc2cc(Br)c(I)cc12` [Compound 3k, 7-Bro.mo-2-(4-chlorophenyl)-3-hydroxy-6-iodo-4H-chromen-4-one], in assay [1], the IC50 was determined as 5.25 ± 0.01 µM and the “SI AChE/BChE” value is listed as 5.57. For the same compound, in assay [2], half-maximal inhibition (IC50) was put at 29.24 ± 0.03 µM and the “SI BChE/AChE” value is 0.18.

As for `COc1cc2oc(-c3ccccc3)c(O)c(=O)c2cc1I` [Compound 3m, 3-Hyd.roxy-6-iodo-7-methoxy-2-phenyl-4H-chromen-4-one], in assay [1], the IC50 is 10.5 ± 0.02 µM and the “SI AChE/BChE” value worked out at 0.88. Also, in assay [2], the concentration for half-maximal inhibition (IC50) was 9.25 ± 0.09 µM and the “SI BChE/AChE” value worked out at 1.14.

In the case of `COc1cc2oc(-c3ccc(F)cc3)c(O)c(=O)c2cc1I` [Compound 3n, 2-(4-F.luorophenyl)-3-hydroxy-6-iodo-7-methoxy-4H-chromen-4-one], in assay [1], half-maximal inhibition (IC50) required 7.93 ± 0.06 µM and the “SI AChE/BChE” value came to 0.76. In assay [2], the half-inhibitory concentration (IC50) was determined as 6.15 ± 0.01 µM and the “SI BChE/AChE” value came to 1.29.

In the case of `COc1cc2oc(-c3ccc(Cl)cc3)c(O)c(=O)c2cc1I` [Compound 3o, 2-(4-C.hlorophenyl)-3-hydroxy-6-iodo-7-methoxy-4H-chromen-4-one], in assay [1], the 50% inhibitory concentration (IC50) was determined as 13.7 ± 0.14 µM and the “SI AChE/BChE” value is reported as 4.03. Further, in assay [2], the IC50 came out at 55.27 ± 0.04 µM and the “SI BChE/AChE” value is 0.24.
